The term IC50 denotes the point on the concentration scale where inhibition reaches its midpoint.

From patent US20260217677A1, “ORGANIC COMPOUNDS AS NLRP3 INHIBITORS” (KODIAK SCIENCES, INC., priority 2023, published 2026) come the findings set out here.

Some results are limits rather than exact numbers.

The first assay has as its system IL-1β release in U937 cells after NLRP3 activation. Description: IL-1β release inhibition in U937 cells (MSD V-Plex). The settings on record: Homo sapiens, U-937, read-out: IL-1β IC50, Table 3; PMA-differentiated U937 cells, 1 μg/mL LPS 3 h, compound 30 min, 10 mM nigericin 1 h.
Method: Differentiating media was prepared by adding 20 nM phorbol 12-myristate 13-acetate (PMA) (AdipoGen AG-CN2-0010-M005) to growth medium. A cell suspension was prepared with differentiating media at 500K cells/mL. […] Plates were placed in an incubator for 90 hours. […] Differentiating media was removed and priming media was added to each well. The plates were placed in the incubator for three (3) hours. 20 mM compound DMSO stock solutions were prepared and were further diluted to 0.4 mM; This solution was serially diluted 6 times in a 1:5 ratio. A solvent control was included.
After three (3) hours of priming, all the media was removed. Next, assay media with compounds was added in duplicate columns. The plate was placed in an incubator for 30 min. Media with a final concentration of 10 mM nigericin was then added for one (1) hour. The supernatant was collected and frozen immediately at −80° C. The plate was transferred to −20° C. the next day and for later determination of cytokine IL-1ß levels.
The release of IL-1ß into the cell media was determined with the MSD® Multi-Spot Assay System (V-Plex, IL-1ß kit, K151KPD). Following the manufacturer's protocol (Alternate Protocol 3, Dilute-In-Plate), the level of IL-1ß in the above collected supernatant plate was measured using electro-chemiluminescent signals. Using MSD DISCOVERY WORKBENCH® analysis software, the signals were converted to the concentration of IL-1ß in each well. The IC50 values of the compounds were calculated using fitted non-linear regression curve in Graph Pad Prism software. The detection range of IL-1ß using MSD kit was approximately 0.15 to 600 μg/mL (based on various lots of standards purchased from MSD).
`Oc1cc(C(F)(F)F)ccc1-c1nnc(N[C@@H]2CCCN(CCN3CC[C@@H](O)C3)C2)c2c1COC2` [Example 36, (R)-1-(2-((R)-3-((4-(2-Hydroxy-4-(trifluoromethyl)phenyl)-5,7-dihydrofuro[3,4-d]pyridazin-1-yl)amino)piperidin-1-yl)ethyl)pyrrolidin-3-ol]: the IC50 lay within 5 to 50 nM.
Same read-out and setting: the result for `Cc1cc(C(F)(F)F)cc(O)c1-c1ccc(N[C@@H]2CCCN(CCN3CCC(O)CC3)C2)nn1` [Compound 6, (R)-1-(2-(3-((6-(2-Hydroxy-6-methyl-4-(trifluoromethyl)phenyl)pyridazin-3-yl)amino)piperidin-1-yl)ethyl)piperidin-4-ol] reads 50 to 500 nM; that for `Cc1cc(N[C@@H]2CCCN(CC34CC(O)(C3)C4)C2)nnc1-c1ccc(C(F)(F)F)cc1O` [Example 64, (R)-3-((3-((6-(2-Hydroxy-4-(trifluoromethyl)phenyl)-5-methylpyridazin-3-yl)amino)piperidin-1-yl)methyl) bicyclo[1.1.1]pentan-1-ol], under 5 nM; that for `CN1Cc2c(N[C@@H]3CCCN(CC(=O)N4CCC(O)CC4)C3)nnc(-c3ccc(C(F)(F)F)cc3O)c2C1` [Example 60, (R)-2-(3-((4-(2-Hydroxy-4-(trifluoromethyl)phenyl)-6-methyl-6,7-dihydro-5H-pyrrolo[3,4-d]pyridazin-1-yl)amino)piperidin-1-yl)-1-(4-hydroxypiperidin-1-yl)ethan-1-one], 50 to 500 nM.
On the same count and under the same terms, under `Cc1cc(N[C@@H]2CCCN(CCN3CC(O)C(F)C3)C2)nnc1-c1ccc(C(F)(F)F)cc1O` (stereo partly drawn) [Compound 5, 4-Fluoro-1-(2-((R)-3-((6-(2-hydroxy-4-(trifluoromethyl)phenyl)-5-methylpyridazin-3-yl)amino)piperidin-1-yl)ethyl)pyrrolidin-3-ol] stands under 5 nM; under `O=C(CN1CCC[C@@H](Nc2nnc(-c3ccc(C(F)(F)F)cc3O)c3ccccc23)C1)N1CCC(O)CC1` [Example 33, (R)-2-(3-((4-(2-Hydroxy-4-(trifluoromethyl)phenyl)phthalazin-1-yl)amino)piperidin-1-yl)-1-(4-hydroxypiperidin-1-yl)ethan-1-one], under 5 nM.
Regarding `Cc1c(N[C@@H]2CCCN(CCOC(=O)N3CCC(O)CC3)C2)nnc(-c2ccc(C(F)(F)F)cc2O)c1C` [Example 75, (R)-2-(3-((6-(2-Hydroxy-4-(trifluoromethyl)phenyl)-4,5-dimethylpyridazin-3-yl)amino)piperidin-1-yl)ethyl 4-hydroxypiperidine-1-carboxylate], the IC50 is under 5 nM.
Same read-out and setting: the result for `O=C(CN1CCC[C@@H](Nc2nnc(-c3ccc(C(F)(F)F)cc3O)c3c2COC3)C1)N1CC2(CCC(O)CC2)C1` [Compound 25, (R)-2-(3-((4-(2-Hydroxy-4-(trifluoromethyl)phenyl)-5,7-dihydrofuro[3,4-d]pyridazin-1-yl)amino)piperidin-1-yl)-1-(7-hydroxy-2-azaspiro[3.5]nonan-2-yl)ethan-1-one] reads 5 to 50 nM.
Same read-out and setting: under `Cc1cc(N[C@@H]2CCCN(C(=O)C3CC4(CC(O)C4)C3)C2)nnc1-c1ccc(C(F)(F)F)cc1O` (stereo partly drawn) [Example 61, (R)-(3-((6-(2-Hydroxy-4-(trifluoromethyl)phenyl)-5-methylpyridazin-3-yl)amino)piperidin-1-yl) (6-hydroxyspiro[3.3]heptan-2-yl)methanone] stands 5 to 50 nM; under `Oc1cc(C(F)(F)F)ccc1-c1nnc(N[C@@H]2CCCN(CCN3CCC(O)CC3)C2)c2c1CCC2` [Compound 19, 1-{2-[(3R)-3-({4-[2-Hydroxy-4-(trifluoromethyl)phenyl]-5H,6H,7H-cyclopenta[d]pyridazin-1-yl}amino)piperidin-1-yl]ethyl}piperidin-4-ol], 50 to 500 nM; under `Cc1cc(N[C@@H]2CCCN(CC(=O)N3CCC(O)C3)C2)nnc1-c1ccc(C(F)(F)F)cc1O` (stereo partly drawn) [Compound 1, 2-((R)-3-((6-(2-Hydroxy-4-(trifluoromethyl)phenyl)-5-methylpyridazin-3-yl)amino)piperidin-1-yl)-1-(3-hydroxypyrrolidin-1-yl)ethan-1-one], 5 to 50 nM.
Same read-out and setting: under `Cc1cc(N[C@@H]2CCCN(CC(=O)N3CC(O)C3)C2)nnc1-c1ccc(C(F)(F)F)cc1O` [Compound 8, (R)-2-(3-((6-(2-Hydroxy-4-(trifluoromethyl)phenyl)-5-methylpyridazin-3-yl)amino)piperidin-1-yl)-1-(3-hydroxyazetidin-1-yl)ethan-1-one] stands 5 to 50 nM.

The same assay, now with this note: Homo sapiens, U-937, read-out: IL-1β IC50, Table 4; PMA-differentiated U937 cells, 1 μg/mL LPS 3 h, compound 30 min, 10 mM nigericin 1 h.
For `Cc1cc(N[C@@H]2CCCN(C3CCN(C(=O)N4CCNCC4)CC3)C2)nnc1-c1ccc(C(F)(F)F)cc1O` [Example 86, (R)-(3-((6-(2-hydroxy-4-(trifluoromethyl)phenyl)-5-methylpyridazin-3-yl)amino)-[1,4′-bipiperidin]-1′-yl) (piperazin-1-yl)methanone], the IC50 fell in the range of 5 to 50 nM.
Same read-out and setting: the result for `Cc1cc(N[C@@H]2CCCN(CC(=O)N3CCNCC3)C2)nnc1-c1ccc2sccc2c1O` [Example 113, (R)-2-(3-((6-(4-hydroxybenzo[b]thiophen-5-yl)-5-methylpyridazin-3-yl)amino)piperidin-1-yl)-1-(piperazin-1-yl)ethan-1-one] reads under 5 nM; that for `Cc1cc(N[C@@H]2CCCN(C3CNC3)C2)nnc1-c1ccc2sccc2c1O` [Example 114, (R)-5-(6-((1-(azetidin-3-yl)piperidin-3-yl)amino)-4-methylpyridazin-3-yl)benzo[b]thiophen-4-ol], under 5 nM; that for `Cc1cc(N[C@@H]2CCCN(CC(=O)NC3CCNCC3)C2)nnc1-c1ccc(C(F)(F)F)cc1O` [Example 95, (R)-2-(3-((6-(2-Hydroxy-4-(trifluoromethyl)phenyl)-5-methylpyridazin-3-yl)amino)piperidin-1-yl)-N-(piperidin-4-yl)acetamide], 50 to 500 nM.
On the same count and under the same terms, the result for `Cc1cc(N[C@@H]2CCCN(CC(F)(F)CN)C2)nnc1-c1ccc(C(F)(F)F)cc1O` [Example 97, (R)-2-(6-((1-(3-Amino-2,2-difluoropropyl)piperidin-3-yl)amino)-4-methylpyridazin-3-yl)-5-(trifluoromethyl)phenol] reads 5 to 50 nM.
Still for that read-out and setting: the result for `Cc1cc(N[C@@H]2CCCN(C3CNC3)C2)nnc1-c1ccc(C(F)(F)F)cc1O` [Example 84, (R)-2-(6-((1-(Azetidin-3-yl)piperidin-3-yl)amino)-4-methylpyridazin-3-yl)-5-(trifluoromethyl)phenol] reads 5 to 50 nM.
As for `Cc1cc(N[C@@H]2CCCN(C(=O)C(F)(F)CN)C2)nnc1-c1ccc(C(F)(F)F)cc1O` [Example 96, (R)-3-Amino-2,2-difluoro-1-(3-((6-(2-hydroxy-4-(trifluoromethyl)phenyl)-5-methylpyridazin-3-yl)amino)piperidin-1-yl) propan-1-one], the IC50 is 5 to 50 nM.
On the same count and under the same terms, the result for `Cc1cc(N[C@@H]2CCCN([C@H]3C[C@H](N)C3)C2)nnc1-c1ccc(C(F)(F)F)cc1O` (relative stereo) [Example 90, 2-(6-(((R)-1-((1r*,3R*)-3-Aminocyclobutyl)piperidin-3-yl)amino)-4-methylpyridazin-3-yl)-5-(trifluoromethyl)phenol] reads 5 to 50 nM.

The same assay, now with this note: read-out: IL-1β IC50; Table 3; PMA-differentiated U937 cells, 1 μg/mL LPS 3 h, compound 30 min, 10 mM nigericin 1 h.
In the case of `Cc1cc(N[C@@H]2CCCN(C(=O)C3CCCC(O)C3)C2)nnc1-c1ccc(C(F)(F)F)cc1O` (single isomer, unassigned) [Example 70 Fraction B], the IC50 was under 5 nM.
